ChEMBL document CHEMBL1201862, “PubChem BioAssay data set” (2004)
Activity calls are given as the source filed them. For most assays here, no stated cut-off is given here; in the data, actives have a measured EC50 and inactives only a lower limit.

Key:
[1] = test system: Streptococcus sp. 'group A'; experiment: Streptococcus pyogenes SK(-)GAS viability under kanamycin – luminescence, BacTiterGlo, confirmation, counter-screen for streptokinase expression inhibitor project, dose response (AID 1900); type: functional, organism-based
[2] = target: T1, Streptokinase A (Streptococcus pyogenes serotype M1, UniProt P10520); experiment: viability-normalized secreted streptokinase activity reduction – plasminogen activation absorbance, OD405, dose response (AID 1914); type: functional, Streptococcus pyogenes M1 GAS;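 further: secreted streptokinase activity via plasminogen activation per viability signal from cell pellet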
T1 sequence (P10520 whole entry): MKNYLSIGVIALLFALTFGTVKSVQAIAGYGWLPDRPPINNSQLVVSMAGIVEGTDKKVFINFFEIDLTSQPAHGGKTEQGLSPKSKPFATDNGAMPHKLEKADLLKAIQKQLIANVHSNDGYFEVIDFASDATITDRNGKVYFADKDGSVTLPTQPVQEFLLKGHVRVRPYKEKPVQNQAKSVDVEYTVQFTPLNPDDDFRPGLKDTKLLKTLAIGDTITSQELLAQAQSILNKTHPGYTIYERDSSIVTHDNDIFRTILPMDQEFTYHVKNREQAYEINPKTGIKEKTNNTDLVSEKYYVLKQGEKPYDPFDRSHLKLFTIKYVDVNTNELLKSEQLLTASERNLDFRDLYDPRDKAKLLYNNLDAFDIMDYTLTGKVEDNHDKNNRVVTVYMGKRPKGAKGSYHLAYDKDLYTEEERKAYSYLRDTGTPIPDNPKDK

[3] = test system: Streptococcus; experiment: GAS UMAA2166 growth inhibition – luminescence, BacTiterGlo, counter-screen for streptokinase expression inhibitor project, dose response (AID 1915); type: functional, organism-based;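 further: potency for reduction of bacterial viability or growth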
[4] = test system: Vero; experiment: viability of Vero cells under compound – cytotoxicity control for flavivirus capping enzyme inhibitors (AID 588742); type: functional; settings: Chlorocebus sabaeus
[5] = target: T2, Apoptotic protease-activating factor 1 (Homo sapiens, UniProt O14727); type: functional
T2 sequence (O14727 whole entry): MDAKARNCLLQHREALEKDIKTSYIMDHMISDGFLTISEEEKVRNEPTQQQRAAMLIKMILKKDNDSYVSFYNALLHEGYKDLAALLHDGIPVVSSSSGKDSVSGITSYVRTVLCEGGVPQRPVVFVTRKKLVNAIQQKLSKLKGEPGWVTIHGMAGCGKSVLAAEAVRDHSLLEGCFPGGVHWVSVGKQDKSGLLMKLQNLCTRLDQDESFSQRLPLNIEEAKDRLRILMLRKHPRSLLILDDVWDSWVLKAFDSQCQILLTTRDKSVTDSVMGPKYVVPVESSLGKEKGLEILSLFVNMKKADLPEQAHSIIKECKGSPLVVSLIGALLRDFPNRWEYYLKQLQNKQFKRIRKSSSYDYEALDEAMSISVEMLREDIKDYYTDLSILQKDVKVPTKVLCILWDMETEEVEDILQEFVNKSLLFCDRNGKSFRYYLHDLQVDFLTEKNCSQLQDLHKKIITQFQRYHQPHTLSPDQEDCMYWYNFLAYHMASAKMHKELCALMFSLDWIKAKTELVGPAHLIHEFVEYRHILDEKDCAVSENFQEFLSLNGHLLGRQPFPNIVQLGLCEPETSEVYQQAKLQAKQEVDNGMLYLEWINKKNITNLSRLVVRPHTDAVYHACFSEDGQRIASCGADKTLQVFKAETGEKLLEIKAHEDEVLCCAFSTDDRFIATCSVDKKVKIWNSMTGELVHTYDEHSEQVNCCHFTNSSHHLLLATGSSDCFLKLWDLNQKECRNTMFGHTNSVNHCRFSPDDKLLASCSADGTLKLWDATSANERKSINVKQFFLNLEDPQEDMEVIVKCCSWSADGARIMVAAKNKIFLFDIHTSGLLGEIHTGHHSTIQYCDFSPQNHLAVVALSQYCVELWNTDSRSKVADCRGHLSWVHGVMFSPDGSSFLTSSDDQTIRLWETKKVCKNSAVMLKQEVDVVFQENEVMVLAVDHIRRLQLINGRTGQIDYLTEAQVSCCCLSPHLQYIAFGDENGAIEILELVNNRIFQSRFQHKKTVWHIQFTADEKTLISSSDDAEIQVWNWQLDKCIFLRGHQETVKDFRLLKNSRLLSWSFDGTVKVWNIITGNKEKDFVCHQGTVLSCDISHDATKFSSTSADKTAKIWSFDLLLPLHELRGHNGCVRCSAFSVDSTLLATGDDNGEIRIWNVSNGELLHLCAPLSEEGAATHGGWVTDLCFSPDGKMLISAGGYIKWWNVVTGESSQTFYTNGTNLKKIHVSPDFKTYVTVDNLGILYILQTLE

[6] = test system: BJ; experiment: BJ-TERT fibroblast viability loss – cell-based, RAS-independent, luminescence, dose response (AID 1933); type: functional; settings: Homo sapiens
[7] = test system: BJ; experiment: cells; type: functional, cell-based; settings: Homo sapiens
[8] = test system: BJ; experiment: BJ-TERT-LT-ST fibroblast viability loss – cell-based, RAS-independent, luminescence, dose response (AID 1935); type: functional; settings: Homo sapiens;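 further: BJ fibroblasts immortalized with TERT plus LT and ST oncogenes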
[9] = DRD fibroblast viability loss – cell-based, non-viral oncogenic, luminescence, dose response (AID 1934); type: functional; settings: Homo sapiens
[10] = target: T3, Ubiquitin-conjugating enzyme E2 N (Homo sapiens, UniProt P61088); type: functional;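 further: Dose-response confirmation in a TR-FRET assay detecting UBC13-driven polyubiquitin chain formation, inhibition measured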
T3 sequence (P61088 whole entry): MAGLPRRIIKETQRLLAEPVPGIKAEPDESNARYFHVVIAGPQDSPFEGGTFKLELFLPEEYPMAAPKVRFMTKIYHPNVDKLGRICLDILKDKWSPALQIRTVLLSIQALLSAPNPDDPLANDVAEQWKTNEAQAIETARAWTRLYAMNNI

[11] = test system: BJ; experiment: growth inhibition of engineered Ras-driven BJ cells – cell-based, alamar blue fluorescence, cherrypicked samples, dose response (AID 2631); type: functional; settings: Homo sapiens;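 further: confirmatory dose-response assay in RAS-dependent BJ fibroblasts engineered with TERT, LT and ST, with cytotoxicity read by fluorescence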
[12] = test system: INS1; experiment: INS-1E survival protection against cytokine death – cell-based, luminescence, retest, dose response (AID 449756); type: functional; settings: Rattus norvegicus;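 further: cell death triggered by IL-1 beta plus TNF-alpha plus IFN-gamma mixture; protective hits raise ATP signal compared with cytokine alone wells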
[13] = target: T4, DNA repair protein RAD52 homolog (Homo sapiens, UniProt P43351); type: functional, biochemical
T4 sequence (P43351 whole entry): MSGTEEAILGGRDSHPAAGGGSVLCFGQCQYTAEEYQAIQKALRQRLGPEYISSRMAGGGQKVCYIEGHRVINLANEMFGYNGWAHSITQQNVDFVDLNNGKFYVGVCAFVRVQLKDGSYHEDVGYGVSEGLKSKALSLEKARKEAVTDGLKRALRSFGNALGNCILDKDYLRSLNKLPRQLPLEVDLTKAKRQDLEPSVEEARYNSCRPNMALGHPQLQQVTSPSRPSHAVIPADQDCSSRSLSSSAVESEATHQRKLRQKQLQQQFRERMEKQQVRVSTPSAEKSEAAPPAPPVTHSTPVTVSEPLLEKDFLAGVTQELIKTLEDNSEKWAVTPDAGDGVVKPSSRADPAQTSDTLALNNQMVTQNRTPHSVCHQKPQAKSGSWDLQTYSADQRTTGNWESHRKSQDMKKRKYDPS

[14] = target: T5, Replicative DNA helicase DnaB (Mycobacterium tuberculosis, UniProt P9WMR3); experiment: DnaB intein splicing inhibitors, dose response, biochemical, cell-free fluorescence (AID 449749); type: functional
T5 sequence (P9WMR3 whole entry): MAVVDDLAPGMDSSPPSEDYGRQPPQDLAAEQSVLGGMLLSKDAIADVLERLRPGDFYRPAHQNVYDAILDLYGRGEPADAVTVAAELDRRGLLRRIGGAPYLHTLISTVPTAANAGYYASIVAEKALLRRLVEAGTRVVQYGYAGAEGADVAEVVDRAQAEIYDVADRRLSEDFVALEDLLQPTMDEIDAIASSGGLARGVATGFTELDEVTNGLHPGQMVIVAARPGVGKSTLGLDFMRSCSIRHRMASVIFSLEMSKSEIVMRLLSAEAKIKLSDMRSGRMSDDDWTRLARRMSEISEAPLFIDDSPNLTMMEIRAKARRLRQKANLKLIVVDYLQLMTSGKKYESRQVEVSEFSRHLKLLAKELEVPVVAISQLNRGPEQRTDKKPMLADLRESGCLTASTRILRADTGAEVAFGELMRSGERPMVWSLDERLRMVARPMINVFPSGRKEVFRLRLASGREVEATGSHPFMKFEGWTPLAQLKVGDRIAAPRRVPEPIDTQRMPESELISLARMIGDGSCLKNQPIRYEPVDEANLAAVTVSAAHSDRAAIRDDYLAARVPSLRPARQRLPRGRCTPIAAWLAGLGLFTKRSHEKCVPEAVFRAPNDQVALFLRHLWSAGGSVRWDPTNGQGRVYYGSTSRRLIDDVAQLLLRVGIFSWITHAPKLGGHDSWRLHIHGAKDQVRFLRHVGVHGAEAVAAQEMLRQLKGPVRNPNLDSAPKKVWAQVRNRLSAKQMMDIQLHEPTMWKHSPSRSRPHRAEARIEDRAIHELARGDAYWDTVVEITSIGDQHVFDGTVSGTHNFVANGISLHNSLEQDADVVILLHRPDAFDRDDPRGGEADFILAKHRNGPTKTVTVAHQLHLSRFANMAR

[15] = target: T6, Protein RecA (Mycobacterium tuberculosis, UniProt P9WHJ3); experiment: Fluorescence Cell-Free Homogeneous Dose Retest to Identify Inhibitors of RecA-Intein Splicing Activity. [Related pubchem assays (depositor defined):AID2097, AID2223, AID489010, AID492950]; type: functional
T6 sequence (P9WHJ3 whole entry): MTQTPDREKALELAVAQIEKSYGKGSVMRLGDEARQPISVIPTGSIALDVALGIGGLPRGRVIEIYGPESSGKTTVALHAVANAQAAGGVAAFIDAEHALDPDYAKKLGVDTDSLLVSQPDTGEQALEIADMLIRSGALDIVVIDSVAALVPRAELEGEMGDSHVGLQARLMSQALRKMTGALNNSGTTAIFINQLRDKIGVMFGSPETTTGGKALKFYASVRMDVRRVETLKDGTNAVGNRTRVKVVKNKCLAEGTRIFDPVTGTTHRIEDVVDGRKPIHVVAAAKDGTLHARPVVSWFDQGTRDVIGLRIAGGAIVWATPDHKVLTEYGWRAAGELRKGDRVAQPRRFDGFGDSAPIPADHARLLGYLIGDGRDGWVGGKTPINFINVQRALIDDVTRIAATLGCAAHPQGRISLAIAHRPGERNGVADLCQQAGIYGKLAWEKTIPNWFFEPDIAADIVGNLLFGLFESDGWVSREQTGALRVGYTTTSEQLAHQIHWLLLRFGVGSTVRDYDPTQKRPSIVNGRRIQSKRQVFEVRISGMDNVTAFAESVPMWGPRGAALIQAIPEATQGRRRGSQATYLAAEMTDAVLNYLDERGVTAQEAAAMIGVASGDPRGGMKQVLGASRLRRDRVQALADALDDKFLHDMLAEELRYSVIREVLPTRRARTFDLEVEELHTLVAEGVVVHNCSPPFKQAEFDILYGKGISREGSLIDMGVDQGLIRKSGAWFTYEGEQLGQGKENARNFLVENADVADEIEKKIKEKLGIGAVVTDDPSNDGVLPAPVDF

COc1ccc(NC(S)=NNc2ccc([N+](=O)[O-])cc2S(=O)(=O)Nc2ccc(C)cc2C)cc1
EC50 [1]: 6.57 µM (active) | EC50 [2]: > 150 µM (not active) | EC50 [3]: 37.7 µM (active) | CC50 [4]: 12.2 µM (active)

CCc1ccc(NC(=S)Nc2cccc3cnccc23)cc1
IC50 [5]: 20 µM (active)

CCCN1C(=O)/C(=C\C=C2/C=CN(CC)c3ccccc32)SC1=S
CC50 [4]: > 40 µM (active)

COc1ccc(C2c3ccc4ccccc4c3Oc3ncn(CCCN(C)C)c(=N)c32)cc1 (stereo unspecified)
EC50 [6]: 5.07 µM (inconclusive) | EC50 [7]: 7.71 µM (active) | EC50 [8]: 4.18 µM (active) | EC50 [9]: 4.43 µM (active) | IC50 [10]: > 20 µM (inactive) | EC50 [11]: 2.86 µM (inconclusive) | AC50 [12]: 7.32 µM (active) | AC50 [13]: 2.33 µM (active)

CCSc1cc(C2C(C#N)=C(N)Oc3[nH]nc(C)c32)c(C)o1 (stereo unspecified)
EC50 [6]: 25.5 µM (active) | EC50 [7]: 17.7 µM (active) | EC50 [8]: > 150 µM (not active) | EC50 [9]: 14.7 µM (active) | AC50 [14]: 10.3 µM (active) | EC50 [11]: 8.45 µM (active) | EC50 [15]: 3.29 µM (active)
